These results are taken from ChEMBL document CHEMBL4402523, “2-Aminomethylene-5-sulfonylthiazole Inhibitors of Lysyl Oxidase (LOX) and LOXL2 Show Significant Efficacy in Delaying Tumor Growth” (J Med Chem, 2020).

A short description of data set [1]: Inhibition of pig skin-derived LOX using cadaverine hydrochloride as substrate preincubated for 1 hr followed by substrate addition by ROS-Glo assay. Also noted: species or system Sus scrofa.
Data set [2] has as its target T1, Lysyl oxidase homolog 2 (Homo sapiens) (UniProt Q9Y4K0).
T1 sequence (whole entry): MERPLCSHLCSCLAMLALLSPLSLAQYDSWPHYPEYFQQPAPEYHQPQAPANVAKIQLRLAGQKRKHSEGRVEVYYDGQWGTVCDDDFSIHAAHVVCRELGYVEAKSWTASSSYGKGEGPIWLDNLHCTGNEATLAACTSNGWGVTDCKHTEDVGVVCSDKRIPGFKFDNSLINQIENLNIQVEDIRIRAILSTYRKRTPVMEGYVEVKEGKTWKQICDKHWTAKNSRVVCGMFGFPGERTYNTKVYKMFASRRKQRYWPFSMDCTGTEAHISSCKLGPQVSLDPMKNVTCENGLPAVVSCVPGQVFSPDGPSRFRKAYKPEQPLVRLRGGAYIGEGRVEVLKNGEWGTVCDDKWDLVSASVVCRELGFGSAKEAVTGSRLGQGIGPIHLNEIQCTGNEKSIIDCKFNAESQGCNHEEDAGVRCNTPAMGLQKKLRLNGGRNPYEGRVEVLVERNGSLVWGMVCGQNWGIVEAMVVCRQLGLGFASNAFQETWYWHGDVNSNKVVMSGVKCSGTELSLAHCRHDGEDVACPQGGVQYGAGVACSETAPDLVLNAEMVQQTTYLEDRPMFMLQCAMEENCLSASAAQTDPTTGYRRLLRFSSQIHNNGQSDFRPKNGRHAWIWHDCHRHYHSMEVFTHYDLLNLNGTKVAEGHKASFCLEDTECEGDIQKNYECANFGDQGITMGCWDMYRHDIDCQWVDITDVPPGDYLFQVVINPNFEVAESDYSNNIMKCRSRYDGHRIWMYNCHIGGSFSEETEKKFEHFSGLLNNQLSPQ
The experiment in a line: Reversible inhibition of human C-terminal His10-tagged LOXL2 (Met1 to Gln774 residues) expressed in mouse NS0 cells assessed as enzyme residual activity at 10 times IC50 using cadaverine hydrochloride as substrate preincubated for 1 hr followed by 100-fold enzyme-compound mixture dilution in …. In kind it is cell-based.

Data set [3] is described as follows: Toxicity in MMTV-PyMT mouse breast cancer model assessed as death at 70 mg/kg, po administered once daily via gavage for 34 days. It is filed as organism-based. Particulars: in vivo, 816 h.
The nature of data set [4]: Stability in CD1 mouse liver microsomes assessed as parent compound remaining at 10 uM measured after 30 mins by LC-MS/MS analysis. The following applies: read-out: Stability. In kind it is ADME, Microsome. Background: Liver microsomes are vesicles of endoplasmic reticulum, rich in cytochrome P450 enzymes.
A short description of data set [5]: Toxicity in MMTV-PyMT mouse breast cancer model assessed as change in body weight at 70 mg/kg, po administered once daily via gavage for 34 days. Particulars: in vivo, 816 h. It is filed as organism-based.
Data set [6] is described as follows: Stability in Sprague-Dawley rat liver microsomes assessed as parent compound remaining at 10 uM measured after 30 mins by LC-MS/MS analysis. It is filed as ADME, Microsome. Particulars: read-out: Stability.
For data set [7], the system named is Mus musculus. Description: Antitumor activity against MMTV-PyMT mouse breast cancer model assessed as reduction in tumor growth at 70 mg/kg, po administered once daily via gavage for 34 days measured twice a week during compound dosing. It is filed as functional, organism-based.

pIC50: −log10 of the molar value. Activity calls are given as the source filed them. The rule behind the calls is not given here.

`Cn1cc(-c2cc(S(C)(=O)=O)cc(S(=O)(=O)c3csc(CN)n3)c2)cn1`: the negative-log IC50 (pIC50) (usually the negative decadic logarithm of the IC50, by convention in mol/L) in data set [1] is less than 4.00. Still for that read-out and setting: next, `CS(=O)(=O)c1cc(-c2ccccc2)cc(-c2cnc(CN)s2)c1`: 4.28 to 4.33; `Cn1cc(-c2cc(S(C)(=O)=O)cc(S(=O)(=O)c3cnc(CN)s3)c2)cn1`: 5.47 to 5.58. As for `CCc1cc(-c2cnn(C)c2)cc(S(=O)(=O)c2cnc(CN)s2)c1`, the Activity in data set [2] is 30%; in data set [3], “Non-Toxic”; in data set [5] it was “Non-Toxic”. The values for the remaining at 0.5 h, 10 µM in data set [4] and in data set [6] were 76% and 82%, respectively. For the same compound, in data set [7], the outcome was Active. On to `CS(=O)(=O)c1cc(Sc2cnc(CN)s2)cc(-c2ccccc2)c1`, for which the pIC50 in data set [1] is 5.88 to 5.95. Regarding `CS(=O)(=O)c1cc(-c2ccccc2)cc(S(=O)(=O)c2ccc(CN)s2)c1`, the Activity in data set [2] stood at 80%. Besides, the remaining at 0.5 h, 10 µM in data set [4] was 64%.

In turn, `CS(=O)(=O)c1cc(-c2ccccc2)cc(S(=O)(=O)c2csc(CN)n2)c1` gave a pIC50 in data set [1] of less than 4.00.
